We go through one compound from US10272056B2, “Treatment for mitochondrial diseases” (The George Washington University a Congressionally …, priority 2015, dated 2019).

Data set [1] has as its system healthy and MELAS fibroblasts. The data set can be described thus: Dose-dependent studies for optimal safe concentrations. Format: cell-based, human. The note with it: three days of treatment. The text has this:
Experimental approaches. Five distinct molecular tools were used to investigate mitochondrial biogenesis: 1) the mitochondrial-specific dyes, MitoTracker® Green (MTG) and MitoTracker® Red (MTR); 2) the mito-GFP or mito-dsRed vector to fluorescently label mitochondria; 3) antibodies against mtDNA, COXVα, or SOD2; 4) the fluorescent PicoGreen® dye labeling mtDNA; and 5) quantitative PCR to determine mtDNA copy number.
Butyrates rescue the mitochondrial mass, morphology, networking, membrane potential, and cellular ATP levels in MELAS fibroblasts. Skin fibroblasts from two MELAS patients and from a healthy subject as a control were used. Dose-dependent analyses of butyrates to determine their best concentrations for eliciting an optimal mitochondrial response without cellular toxicity was performed. Healthy and MELAS fibroblasts were treated with PBS, NaBt (2.5 mM), TBN (1.5 mM), or AN9 (300 μM) for three days before labeling with the MTG dye for live cell confocal analysis.

Data set [2] has as its system PC12-ND6 cells. The data set can be described thus: mtDNA replication (PicoGreen staining, quantitative PCR). The note with it: confirmed by quantitative PCR. Format: cell-based. An excerpt:
(§1) FIG. 11A-11D are images from microscopy and graphs showing NaBt promotes mtDNA replication via the NRF-1/Tfam axis. (A) Confocal analysis of mtDNA foci; scale bar=5 (B) Quantitative analysis of mtDNA copy number by PCR; *p<0.001. (C, D) Quantitative immunoblot analysis of NRF-1 and Tfam; *p<0.001.
(§2) NaBt enhances mtDNA replication via the PGC1α-mediated NRF-1/Tfam axis. It was investigated whether NaBt enhanced mtDNA replication using the PicoGreen® dye to label mtDNA. PC12-ND6 cells were transfected with the mito-dsRed vector prior to NaBt treatment followed by PicoGreen® staining. […] To corroborate enhanced mitochondrial biogenesis, two key target genes of PGC1α were examined, the NRF-1 transcription factor and its direct target gene Tfam, both essential for mitochondrial biogenesis. […] The findings confirm the NaBt-mediated modulation of mitochondrial biogenesis and mtDNA replication in neuronal cells.

Data set [3] concerns PC12-ND6 cells. The data set can be described thus: Cell viability by live-cell confocal microscopy (Nuclear-ID stain). Format: cell-based. The note with it: 5 mM NaBt, three days. An excerpt: FIG. 4A-4E are images from microscopy and graphs showing NaBt dose-dependent acetylation and cellular toxicity in PC12-ND6 cells and embryonic E17.5 hippocampal neurons. (A) Confocal micrographs of PC12-ND6 cells (referred to as ND6) grown in the absence or presence of NaBt for three days and labeled with an anti-acetylated Lys antibody (AcLys; green). Scale bar represents 10 μm. […] Results are expressed as relative fluorescence intensity±S.D. (n=250 cells per NaBt concentration; * p=0.0001). (C) Effect of NaBt on PC12-ND6 cell viability. […] Mean±SEM (n=250 cells for each experimental condition; * p=0.0001). (D) Confocal micrographs of NaBt dose-dependent acetylation in E17.5 hippocampal neurons (AcLys; green). Scale bar represents 10 μm.
Sodium butyrate increases protein acetylation in a dose-dependent manner without inducing cellular toxicity. A dose response analysis was performed to determine the optimal concentration of sodium butyrate (NaBt) for inducing maximal acetylation levels with minimal cellular toxicity. PC12-ND6 cells were treated with different concentrations of NaBt (2 mM, 5 mM, and 10 mM) for three days before assessing the degree of acetylated lysine residues by immunocytochemistry and cell viability by live-cell confocal microscopy using the Nuclear-ID™ stain.

Data set [4] concerns mouse models of neurodegenerative diseases and ischemia/stroke. Conditions: in vivo; cited from earlier work.
Data set [5] has as its system Tfam. Put plainly: Quantitative immunoblot analysis of Tfam. Format: cell-based. The note with it: NaBt treatment, PC12-ND6.
From the text: as §1, §2

In data set [6] the test system is NRF-1. Put plainly: Quantitative immunoblot analysis of NRF-1. Format: cell-based. The note with it: NaBt treatment, PC12-ND6.
From the text: as §1, §2
In general terms: In western blotting, separated proteins are transferred to a membrane and probed.

In data set [7] the test system is MELAS fibroblasts. The data set can be described thus: Morphometric analysis of mitochondrial connectivity (Image J). The format is cell-based, human. The note with it: Image J analysis of MTG-labeled fibroblasts. The protocol: FIG. 18 is a graph showing that butyrate and its derivatives rescue the mitochondrial dynamics and connectivity in MELAS fibroblasts.
Butyrates rescue the mitochondrial mass, morphology, networking, and membrane potential in MELAS fibroblasts. Skin fibroblasts from two MELAS patients and from a healthy subject as a control were used. Dose-dependent analyses of butyrates was performed to determine their best concentrations for eliciting an optimal mitochondrial response without cellular toxicity. Healthy and MELAS fibroblasts were treated with PBS, NaBt (2.5 mM), TBN (1.5 mM), or AN9 (300 μM) for three days before labeling with the MTG dye for live cell confocal analysis.

Data set [8] deals with E17.5 hippocampal neurons. Put plainly: Neuronal stage 3 frequency with chloramphenicol and NaBt. Format: cell-based. An excerpt:
FIG. 16A-16I are images from microscopy and a graph showing that Pre-treatment of E17.5 hippocampal neurons with NaBt protects against chloramphenicol-induced loss of neuronal differentiation. (A-D) Confocal micrographs of E17.5 hippocampal neurons exposed to different concentrations of chloramphenicol at 2DIV and labeled with anti tubulin antibody (red) and nuclear counterstain DAPI (blue) at 3DIV. Scale bar represents 10 μm. (E-H) Confocal micrographs of E17.5 hippocampal neurons treated with NaBt (2 mM) at 1DIV prior to exposure to different concentrations of chloramphenicol at 2DIV and labeled with anti tubulin antibody (red) and nuclear counterstain DAPI (blue) at 3DIV. Scale bar represents 10 μm. (I) Graph of E17.5 β-III^+ hippocampal neurons at the neuronal stage 3. Mean±S.D. (n=250 cells; compared to untreated control *p=0.0001; compared to the corresponding non-NaBt treated sample **p=0.0001; compared to non-NaBt treated cells exposed to Cm at 30 μM‡p=0.007).
The consequences of chloramphenicol exposure on untreated or NaBt-treated E17.5 hippocampal neurons was examined. At 1DIV, dissociated E17.5 hippocampal neurons were switched to differentiation medium in the absence or presence of NaBt (2 mM) for 24 hours before being treated with increasing concentrations of chloramphenicol (0, 15, 30, and 60 μM) for 24 hours. At 3DIV, their phenotypic differentiation was examined by immunocytochemistry using an antibody against the pan-neuronal marker β-III tubulin and quantified the percent of neurons having reached the developmental stage 3 for each experimental condition. As expected, only half of untreated neurons reached stage 3 in the absence of NaBt, while more than 90% of NaBt-treated neurons achieved such degree of differentiation, thereby forming an elaborate neuritic network (FIGS. 16A, E, and I).

Each structure is given as a SMILES string.

On to `CCCC(=O)[O-].[Na+]` [NaBt, sodium butyrate], for which, in data set [1], the “optimal safe concentration for eliciting maximal mitochondrial biogenesis without cellular toxicity” value was 2.5 mM. For the same compound, the mtDNA foci entry in data set [2] is “increased number of mtDNA foci”. Further, the cell death entry in data set [3] is listed as “negligible cell death”. Besides, the “effects in mouse models” value in data set [4] was “stimulates neurogenesis, enhances synaptic plasticity and memory, while preventing neuronal death”. Moreover, the Tfam expression result in data set [5] is “induced Tfam expression on day 2”. Also, the NRF-1 expression entry in data set [6] is listed as “increased on day 1”. Besides, the connectivity among mitochondria result in data set [7] is given as “rescue the connectivity among mitochondria”. Also, the “frequency of advanced neuronal stage with NaBt pre-treatment” value in data set [8] (NaBt 2 mM prior to chloramphenicol up to 60 μM) is reported as “sustained the frequency of advanced neuronal stage”. The “percent of neurons reaching stage 3” value in data set [8] (NaBt 2 mM, no chloramphenicol, 3DIV) was “more than 90%”.
